# Experimental data from the supplement of paper PMC10307832.
# Compound: CCn1c(-c2nonc2N)nc2c(C#CC(C)(C)O)ncc(OC[C@H]3CCCNC3)c21
# Experiment: relative viability (nuclei count vs DMSO), 5 days (fraction); higher = more cells survive
# Settings: 1 µM
# In short: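 For viability, nuclei in each treated well were divided by nuclei in vehicle wells and the median across plates was taken. Lung cancer cell lines in 1536-well plates were pinned with five library-drug doses (not always all listed) spaced by √10, cultured 5 days without medium change, and imaged at 4× after Hoechst staining, with plates passing only at control CV below 25% and at least one doubling.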
row,Cell Line,relative viability
1,PC-3 [JPC-3],1.08

# Compound: CCOC1=CC=CC=C1N=NC2=C(NN(C2=O)C3=NC(=CS3)C4=CC=CC=C4)C [BAM7] + CS(=O)(=O)N1CCN(Cc2cc3nc(-c4cccc5[nH]ncc45)nc(N4CCOCC4)c3s2)CC1 [Pictilisib] (partner 1 µM)
# Experiment: relative viability (nuclei count vs DMSO), 5 days (fraction); higher = more cells survive
# Settings: first compound 0.5 µM
# In short: (§1)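 Relative viability equals treated-well nuclei counts divided by vehicle-well nuclei counts. Counts came from 4× images of lung cancer cell lines grown in 1536-well plates for 5 days after pin-tool dosing on the day after seeding. Dosing used one drug alone or a fixed anchor-drug dose plus five library-drug doses (not always all listed) in √10 steps, and values are medians of duplicate plates.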
row,Cell Line,relative viability
1,NCI-H23,0.55
2,NCI-H1299,0.675
3,NCI-H647,0.49
4,CAL-12T,0.467
5,NCI-H1651,0.497
6,EPLC-272H,0.358
7,NCI-H2228,0.407
8,NCI-H1792,0.282
9,NCI-H1355,0.462
10,NCI-H3122,0.75
11,NCI-H1437,0.722
12,NCI-H1755,0.454
13,NCI-H2023,0.277
14,HCC-15,0.818
15,NCI-H1793,0.445
16,PC-14,0.775
17,EKVX,0.458
18,LC-2-ad,0.581
19,NCI-H1563,0.651
20,NCI-H1944,0.344
21,NCI-H1975,0.29
22,RERF-LC-KJ,0.551
23,ABC-1,0.746
24,NCI-H358,0.296
25,NCI-H650,0.893
26,PC-3 [JPC-3],0.693

# Same assay, conditions: first compound 5 µM
row,Cell Line,relative viability
1,NCI-H23,0.52
2,NCI-H1299,0.779
3,NCI-H647,0.511
4,CAL-12T,0.526
5,NCI-H1651,0.64
6,EPLC-272H,0.327
7,NCI-H2228,0.429
8,NCI-H1792,0.258
9,NCI-H1355,0.41
10,NCI-H3122,0.689
11,NCI-H1437,0.434
12,NCI-H1755,0.409
13,NCI-H2023,0.245
14,HCC-15,0.802
15,NCI-H1793,0.3
16,PC-14,1.02
17,EKVX,0.512
18,LC-2-ad,0.222
19,NCI-H1563,0.714
20,NCI-H1944,0.384
21,NCI-H1975,0.259
22,RERF-LC-KJ,0.496
23,ABC-1,0.674
24,NCI-H358,0.366
25,NCI-H650,1.03
26,PC-3 [JPC-3],0.736

# Same assay, conditions: first compound 15.81 µM
row,Cell Line,relative viability
1,NCI-H23,0.499
2,NCI-H1299,0.782
3,NCI-H647,0.478
4,CAL-12T,0.413
5,NCI-H1651,0.7
6,EPLC-272H,0.323
7,NCI-H2228,0.34
8,NCI-H1792,0.228
9,NCI-H1355,0.384
10,NCI-H3122,0.685
11,NCI-H1437,0.318
12,NCI-H1755,0.366
13,NCI-H2023,0.3
14,HCC-15,0.764
15,NCI-H1793,0.317
16,PC-14,0.598
17,EKVX,0.335
18,LC-2-ad,0.383
19,NCI-H1563,0.642
20,NCI-H1944,0.332
21,RERF-LC-KJ,0.492
22,ABC-1,0.984
23,NCI-H358,0.327
24,NCI-H650,0.896
25,PC-3 [JPC-3],0.612

# Same assay, conditions: first compound 50 µM
row,Cell Line,relative viability
1,NCI-H23,0.542
2,NCI-H1299,0.824
3,NCI-H647,0.541
4,CAL-12T,0.466
5,NCI-H1651,0.541
6,EPLC-272H,0.347
7,NCI-H2228,0.429
8,NCI-H1792,0.289
9,NCI-H1355,0.435
10,NCI-H3122,0.694
11,NCI-H1437,0.63
12,NCI-H1755,0.415
13,NCI-H2023,0.297
14,HCC-15,0.747
15,NCI-H1793,0.358
16,PC-14,0.656
17,EKVX,0.415
18,LC-2-ad,0.427
19,NCI-H1563,0.639
20,NCI-H1944,0.346
21,NCI-H1975,0.283
22,RERF-LC-KJ,0.515
23,ABC-1,0.857
24,NCI-H358,0.359
25,NCI-H650,0.77
26,PC-3 [JPC-3],0.631

# Compound: CCn1c(-c2nonc2N)nc2c(C#CC(C)(C)O)ncc(OC[C@H]3CCCNC3)c21 + CS(=O)(=O)CCNCc1ccc(-c2ccc3ncnc(Nc4ccc(OCc5cccc(F)c5)c(Cl)c4)c3c2)o1 [Lapatinib] (partner 2 µM)
# Experiment: as above
# Settings: first compound 0.01 µM
# In short: as §1
row,Cell Line,relative viability
1,NCI-H23,1.07
2,NCI-H1299,0.927
3,NCI-H647,0.874
4,CAL-12T,0.613
5,NCI-H1651,0.816
6,EPLC-272H,0.905
7,NCI-H2228,1.27
8,NCI-H1792,0.897
9,NCI-H1355,1.03
10,NCI-H3122,0.959
11,NCI-H1437,0.841
12,NCI-H1755,1.03
13,NCI-H2023,0.74
14,HCC-15,0.868
15,NCI-H1793,0.75
16,PC-14,0.314
17,EKVX,0.235
18,LC-2-ad,0.993
19,NCI-H1563,0.93
20,NCI-H1944,0.767
21,NCI-H1975,0.828
22,RERF-LC-KJ,0.873
23,ABC-1,1.28
24,NCI-H358,0.453
25,NCI-H650,0.733
26,PC-3 [JPC-3],0.442

# Same assay, conditions: first compound 0.03162 µM
row,Cell Line,relative viability
1,NCI-H23,1.05
2,NCI-H1299,0.967
3,NCI-H647,1.23
4,CAL-12T,0.665
5,NCI-H1651,0.854
6,EPLC-272H,0.998
7,NCI-H2228,1.09
8,NCI-H1792,0.859
9,NCI-H1355,0.944
10,NCI-H3122,1.04
11,NCI-H1437,0.821
12,NCI-H1755,1.02
13,NCI-H2023,0.792
14,HCC-15,0.824
15,NCI-H1793,0.699
16,PC-14,0.406
17,EKVX,0.203
18,LC-2-ad,1.01
19,NCI-H1563,0.94
20,NCI-H1944,0.825
21,NCI-H1975,0.975
22,RERF-LC-KJ,0.743
23,ABC-1,1.26
24,NCI-H358,0.485
25,NCI-H650,0.838
26,PC-3 [JPC-3],0.433

# Same assay, conditions: first compound 0.1 µM
row,Cell Line,relative viability
1,NCI-H23,1.14
2,NCI-H1299,0.998
3,NCI-H647,1.08
4,CAL-12T,0.845
5,NCI-H1651,0.798
6,EPLC-272H,0.907
7,NCI-H2228,1.02
8,NCI-H1792,0.862
9,NCI-H1355,0.998
10,NCI-H3122,1.05
11,NCI-H1437,0.877
12,NCI-H1755,1.03
13,NCI-H2023,0.769
14,HCC-15,0.865
15,NCI-H1793,0.577
16,PC-14,0.319
17,EKVX,0.223
18,LC-2-ad,0.906
19,NCI-H1563,0.924
20,NCI-H1944,0.751
21,NCI-H1975,0.927
22,RERF-LC-KJ,0.814
23,ABC-1,1
24,NCI-H358,0.449
25,NCI-H650,0.783
26,PC-3 [JPC-3],0.472

# Same assay, conditions: first compound 0.3162 µM
row,Cell Line,relative viability
1,NCI-H23,1.17
2,NCI-H1299,0.947
3,NCI-H647,0.788
4,CAL-12T,0.585
5,NCI-H1651,0.715
6,EPLC-272H,0.788
7,NCI-H2228,0.755
8,NCI-H1792,0.757
9,NCI-H1355,0.926
10,NCI-H3122,1.13
11,NCI-H1437,0.719
12,NCI-H1755,0.993
13,NCI-H2023,0.689
14,HCC-15,0.808
15,NCI-H1793,0.548
16,PC-14,0.246
17,EKVX,0.206
18,LC-2-ad,0.975
19,NCI-H1563,0.926
20,NCI-H1944,0.773
21,NCI-H1975,0.799
22,RERF-LC-KJ,0.832
23,ABC-1,1.13
24,NCI-H358,0.4
25,NCI-H650,0.753
26,PC-3 [JPC-3],0.449

# Same assay, conditions: first compound 1 µM
row,Cell Line,relative viability
1,NCI-H23,0.776
2,NCI-H1299,0.982
3,NCI-H647,0.981
4,CAL-12T,0.595
5,NCI-H1651,0.842
6,EPLC-272H,0.909
7,NCI-H2228,0.729
8,NCI-H1792,0.871
9,NCI-H1355,1.02
10,NCI-H3122,1
11,NCI-H1437,0.795
12,NCI-H1755,1.07
13,NCI-H2023,0.953
14,HCC-15,0.795
15,NCI-H1793,0.939
16,PC-14,0.291
17,EKVX,0.223
18,LC-2-ad,0.977
19,NCI-H1563,0.781
20,NCI-H1944,0.819
21,NCI-H1975,0.728
22,RERF-LC-KJ,0.926
23,ABC-1,1.15
24,NCI-H358,0.398
25,NCI-H650,0.741
26,PC-3 [JPC-3],0.445
